Test results reported in patent US6414138B1, “Process for producing mixtures rich in 1,6-GPS or 1,1-GPM” (Sudzucker Aktiengesellschaft, priority 1997, dated 2002).

Experiment: Solubility of 1,1-GPM and 1,6-GPS in water / aqueous suspension
Format: physicochemical
Conditions: seed crystals mixed into concentrated aqueous solution of hydrogenated isomaltulose, about 50-65° C.
Description: Since the solubility equilibrium is temperature-dependent, the concentration ratio of the two components can advantageously be preset. After the solubility equilibrium is adjusted, the 1,1-GPM and 1,6-GPS concentration in the products can be controlled by setting the rate for the temperature change.
In another preferred embodiment of the invention, a suspension which is formed by the addition of, for example, crystalline hydrogenated isomaltulose in water, is heated to, for example, 85° C. to completely dissolve the solute, whereafter the cooling step to crystallize the solution is combined with a seeding step. The seeding step, however, is not essential. Advantageously, powdered hydrogenated isomaltulose in crystalline form or in the form of a suspension can be used. Most advantageously, the suspension is formed in water or in an organic solvent, such as isopropanol, and a food-compatible dispersing agent acting as a solvent can be added, if necessary. […]
The two constituents of hydrogenated isomaltulose, i.e. 1,1-GPM and 1,6-GPS, have a different solubility in aqueous solutions (FIG. 4). […] The 1,1-GPM component, which crystallizes more readily, is concentrated in the solid fraction of the suspension, whereas the 1,6-GPS component, which crystallizes less readily, goes preferentially into solution. […]

solubility (in words)	SMILES
only slightly soluble	OC[C@@H](O)[C@@H](O)[C@H](O)[C@H](O)CO[C@H]1O[C@H](CO)[C@@H](O)[C@H](O)[C@H]1O [1,1-GPM, 1-0-α-D-Glucopyranosyl-D-mannite]
readily soluble	OC[C@H](O)[C@@H](O)[C@H](O)[C@H](O)CO[C@H]1O[C@H](CO)[C@@H](O)[C@H](O)[C@H]1O [1,6-GPS, 6-0-α-D-Glucopyranosyl-D-sorbite]
